# Experimental data: PMC8041433 (Environmental Health Perspectives, 2021)
# Values joined by “and” are separate entries in the source; they are usually repeats but may differ in a detail not shown here. Equal entries are not always repeated. Where two headings read alike, the source gives them in different places.
# Assays:
# recombinant human AChE [1] = target: T1, recombinant human AChE (Homo sapiens, UniProt P22303); assay: biochemical
# recombinant human AChE [2] = target: T1, recombinant human AChE
# recombinant human AChE [3] = target: T1, recombinant human AChE; assay: biochemical; format: biochemical; conditions: for AC50: AC50 (uM)
# [4] = target: AChE in neural stem cells (Homo sapiens, UniProt P22303); assay: cell-based
# Sequence of AChE in neural stem cells (P22303 32-614): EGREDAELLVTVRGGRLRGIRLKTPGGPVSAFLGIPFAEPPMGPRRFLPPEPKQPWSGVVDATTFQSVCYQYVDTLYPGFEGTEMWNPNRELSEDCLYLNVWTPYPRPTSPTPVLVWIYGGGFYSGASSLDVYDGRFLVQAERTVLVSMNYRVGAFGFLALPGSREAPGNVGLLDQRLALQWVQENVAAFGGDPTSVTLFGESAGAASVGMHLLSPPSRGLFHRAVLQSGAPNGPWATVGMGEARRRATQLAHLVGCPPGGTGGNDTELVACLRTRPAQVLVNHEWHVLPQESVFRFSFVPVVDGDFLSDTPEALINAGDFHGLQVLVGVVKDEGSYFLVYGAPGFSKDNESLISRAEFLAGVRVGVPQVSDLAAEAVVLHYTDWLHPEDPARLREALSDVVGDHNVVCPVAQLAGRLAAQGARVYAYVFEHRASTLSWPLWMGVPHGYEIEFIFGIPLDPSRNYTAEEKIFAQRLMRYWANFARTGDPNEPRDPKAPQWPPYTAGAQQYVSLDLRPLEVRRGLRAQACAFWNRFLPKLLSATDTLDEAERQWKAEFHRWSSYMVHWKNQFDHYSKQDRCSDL
# [5] = target: AChE in SH-SY5Y spheroids (Homo sapiens, UniProt P22303); assay: cell-based
# Sequence of AChE in SH-SY5Y spheroids (P22303 32-614): as above
# [6] = target: AChE in neural stem cell spheroids (Homo sapiens, UniProt P22303); assay: cell-based; conditions: for IC50: potency (IC50)
# Sequence of AChE in neural stem cell spheroids (P22303 32-614): as above
# AChE in SH-SY5Y cells = AChE in SH-SY5Y cells (Homo sapiens, UniProt P22303); assay: cell-based
# Sequence of AChE in SH-SY5Y cells (P22303 32-614): as above
# recombinant human AChE [7] = target: T1, recombinant human AChE; assay: biochemical; remark: listed apart in the source
# recombinant human AChE [8] = target: T1, recombinant human AChE; assay: biochemical; remark: listed apart in the source
# [9] = potency (IC50), SH-SY5Y spheroids (24 h)
# [10] = potency (IC50), SH-SY5Y spheroids (48 h)
# [11] = Neural stem cell spheroid (24 h)
# [12] = Neural stem cell spheroid (48 h)
# [13] = potency (IC50), SH-SY5Y cells monolayer
# [14] = potency (IC50), Enzyme with microsomes
# [15] = read-out: potency (IC50), SH-SY5Y spheroids (48 h)
# Throughout, for IR or R: key: Reversible (R); Irreversible (IR); ND, not detected in enzyme-based AChE inhibition assay from current study.
# T1 sequence (P22303 32-614): as above
SMILES,IC50 (recombinant human AChE [1]),CC-v2 (curve classes) (recombinant human AChE [2]),AC50 (recombinant human AChE [3]),IC50 [4],"IC50 [5, 9]","IC50 [5, 10]","IC50 [6, 11]","IC50 [6, 12]",CC-v2 (curve classes) (AChE in SH-SY5Y cells),IC50 (AChE in SH-SY5Y cells; IC50 (uM)),IC50 (AChE in SH-SY5Y cells; [13]),IC50 (recombinant human AChE [7]; [14]),CC-v2 (curve classes) (recombinant human AChE [8]),"IC50 (recombinant human AChE [8]; potency (IC50), Enzyme)",Efficacy (recombinant human AChE [2]),IR or R (recombinant human AChE [3]),Efficacy (recombinant human AChE [8]),further results
CCCCSP(=O)(SCCCC)SCCCC [Tribufos],25.1 ± 2.88 µM,-1.1,88.5 µM,39.8 µM,12.2 µM,12 µM,31.4 µM,14 µM,-2.2 and -1.2,28.3 µM and 31 µM and 17.8 µM and 27.6 µM and 15.9 µM and 34.8 µM,15.3 µM,3.66 µM,-2.2 and 4,35.3 µM,,,,IC50 (recombinant human AChE [7]; IC50 (uM)): 5.02 µM and 5.51 µM; IC50 (recombinant human AChE [8]; read-out: IC50): 35.6 µM
"O=c1[nH]c2ccc([S+]([O-])CCN3CCC(Cc4ccc(F)cc4)CC3)cc2o1 (stereo not drawn) [Besonprodil, reference compound]",16.4 ± 1.11 µM,-2.1,14 µM (2×) and 9.93 µM (2×) and 15.7 µM (2×) and 7.03 µM,15.8 ± 1.81 µM,4.75 ± 3.24 µM,7.44 ± 1.68 µM,11.5 ± 3.7 µM,,-1.1,6.33 µM,8.57 ± 1.17 µM,15.8 ± 1.81 µM,-1.1,7.92 ± 0.91 µM,-73.433,R,-92.894,"potency (IC50), Neural stem cell spheroid (48 h) [6]: Inactive"
CNC(=O)O/N=C/C(C)(C)[S+](C)[O-] (stereo not drawn) [Aldicarb sulfoxide],0.78 ± 0.22 µM,-1.1,498 nM and 789 nM and 885 nM and 993 nM and 1.11 µM and 559 nM (2×) and 198 nM and 627 nM,0.34 ± 0.04 µM,0.46 ± 0.08 µM,0.56 µM,0.24 ± 0.03 µM,0.27 ± 0.17 µM,-1.1,0.354 µM and 0.322 µM and 0.397 µM and 0.287 µM,0.67 ± 0.04 µM,0.68 ± 0.09 µM,-1.1,0.41 ± 0.02 µM,,,,fold more potent than aldicarb (recombinant human AChE [8]): 15 fold; IC50 (recombinant human AChE [8]; IC50): 0.61 µM
CNC(=O)Oc1cc(C)cc(C(C)C)c1 [Promecarb],0.61 ± 0.08 µM,-1.1,,1.35 ± 0.18 µM,1.38 ± 1.23 µM,0.68 ± 0.09 µM,0.93 ± 0.07 µM,0.66 µM,-1.1,0.633 µM and 0.564 µM,0.88 ± 0.1 µM,0.68 ± 0.11 µM,-1.1,0.48 ± 0.12 µM,-98.92,R,-99.272,AC50 (recombinant human AChE [3]; activity_5): 1.98 µM and 1.25 µM; AC50 (recombinant human AChE [3]; activity_10): 0.885 µM and 1.77 µM; AC50 (recombinant human AChE [3]; activity_60): 0.703 µM and 0.498 µM and 1.11 µM
Cc1nc(N(C)C)nc(OC(=O)N(C)C)c1C [Pirimicarb],8.21 ± 0.56 µM,-2.2,,2.84 ± 0.65 µM,7.09 ± 4.92 µM,,1.4 ± 0.16 µM,2.47 µM,-1.1,11.2 µM,7.42 ± 2.77 µM,8.53 ± 0.55 µM,-1.1,12.7 ± 2.36 µM,-73.016,R,-85.325,"AC50 (recombinant human AChE [3]; activity_5): 49.8 µM and 62.7 µM and 22.2 µM; AC50 (recombinant human AChE [3]; activity_10): 19.8 µM and 44.4 µM and 49.8 µM; AC50 (recombinant human AChE [3]; activity_60): 19.8 µM and 5.59 µM and 9.93 µM; IC50 [5, 15]: 15.2 ± 0.99 µM"
CCOP(=S)(OCC)OC(Cl)C(Cl)(Cl)Cl (stereo not drawn) [Chlorethoxyfos],65.2 ± 4.42 µM,-1.1,1.57 µM,46.2 µM,33.2 µM,,42.8 µM,47 µM,-2.1,35.6 µM,28.3 µM,5.86 µM,-2.1,60.4 µM,-100.975,,-89.198,"IC50 [5, 15]: 37.3 µM; IC50 (AChE in SH-SY5Y cells; read-out: IC50): 31.7 µM; IC50 (recombinant human AChE [7]; IC50 (uM)): 28.3 µM; IC50 (recombinant human AChE [8]; IC50 (uM)): 79.6 µM"
Cc1cc(OC(=O)N(C)C)nn1C(=O)N(C)C [Dimetilan],11.6 ± 1.49 µM,-2.1,49.8 µM (2×) and 31.4 µM and 19.8 µM (2×) and 55.9 µM and 12.5 µM and 5.59 µM and 14 µM,4.45 ± 0.51 µM,15.8 ± 16.9 µM,7.03 µM,1.53 ± 0.26 µM,3.12 ± 1.72 µM,-1.1,7.1 µM,6.89 ± 3.77 µM,9.97 ± 1.14 µM,-1.1,16 ± 3.66 µM,-61.098,R,-84.168,
"COc1ccc(C(=O)NCc2ccc(OCCN(C)C)cc2)cc1OC.Cl [Itopride hydrochloride, reference compound]",22.6 ± 1.53 µM,4,15.3 µM (3×) and 21.7 µM and 17.2 µM and 19.3 µM,11.2 ± 3.11 µM,4.44 ± 3.53 µM,11.2 ± 3.12 µM,23.5 ± 3.23 µM,14.2 µM,-1.1 and -2.1,6.92 µM and 4.9 µM and 5.5 µM,7.68 µM,19.4 ± 2.22 µM,-2.2,12.7 ± 0.85 µM,0,R,-69.798,IC50 (recombinant human AChE [8]; IC50 (uM)): 27.5 µM
CCOC(=O)CCN(SN(C)C(=O)Oc1cccc2c1OC(C)(C)C2)C(C)C [Benfuracarb],1.85 ± 0.24 µM,-1.1,0.885 µM and 0.703 µM and 0.789 µM and 1.25 µM and 0.993 µM and 0.627 µM and 0.444 µM and 0.314 µM and 0.498 µM,7.67 µM,1.76 µM,0.84 µM,12.1 µM,12.6 µM,-1.1,0.252 µM and 0.356 µM and 0.0448 µM,1.25 µM,1.4 µM,-1.1,4.97 µM,-96.321,,-95.401,
CCOP(=S)(OCC)SCSP(=S)(OCC)OCC [Ethion],58.7 ± 10.6 µM,-1.1,49.8 µM (3×) and 55.9 µM (3×) and 88.5 µM and 62.7 µM,7.03 ± 3.56 µM,31.9 ± 21.6 µM,42.8 ± 2.79 µM,0.09 ± 0.02 µM,0.48 ± 0.46 µM,-2.1,39.9 µM and 35.6 µM and 31.7 µM,17 ± 1.1 µM,11.1 µM,-2.1,7.92 ± 0.91 µM,-94.606,,-121.235,
CCOC(=O)c1cn2nc(OP(=S)(OCC)OCC)cc2nc1C [Pyrazophos],85.3 ± 5.56 µM,-1.1,,16.4 µM,29.7 µM,46.2 µM,2.46 µM,4.46 µM,-2.1,35.6 µM and 71 µM and 79.6 µM,46.2 µM,7.89 µM,-3,49.8 µM,-98.116,,-45.459,AC50 (recombinant human AChE [3]; activity_60): 55.9 µM and 62.7 µM
